Laboratory results from ChEMBL document CHEMBL1201862, “PubChem BioAssay data set” (2004).
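In this assay, cells in 96-well plates receive the compound at five concentrations for 48 hours. Endpoints are linearly interpolated between the surrounding concentrations. GI50 = concentration required for 50% inhibition of growth.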 The source made the active and inactive calls. No stated cut-off is given here; in the data, active = GI50 up to about 1.1 µM and inactive = higher.

Assays:
Assay in all cases: NCI tumour cell line growth inhibition, 48 h
SN12C = test system: SN12C
SW-620 = test system: SW-620
U-251 = test system: U-251
CCRF-CEM = test system: CCRF-CEM
HCT-116 = test system: HCT-116
ACHN = test system: ACHN
SNB-19 = test system: SNB-19
RPMI-8226 = test system: RPMI-8226
EKVX = test system: EKVX
NCI-H460 = test system: NCI-H460
786-0 = test system: 786-0
SF-295 = test system: SF-295
K562 = test system: K562
SF-539 = test system: SF-539
SNB-75 = test system: SNB-75
OVCAR-4 = test system: OVCAR-4
A498 = test system: A498
OVCAR-5 = test system: OVCAR-5

Measured: GI50

C[C@]12CC[C@@H]3c4ccccc4CC[C@H]3[C@@H]1CC[C@@H]2O
inactive: SN12C 83 µM | SW-620 > 100 µM | U-251 > 100 µM | CCRF-CEM 62.5 µM | HCT-116 > 100 µM | ACHN > 100 µM | SNB-19 > 100 µM | RPMI-8226 53.2 µM | EKVX 80.5 µM | NCI-H460 38.5 µM | 786-0 > 100 µM | SF-295 > 100 µM | K562 32.1 µM | SF-539 43.1 µM | SNB-75 54.7 µM

CCC1CN2CCc3cc(OC)c(OC)cc3C2CC1CC1c2cc(OC)c(OC)cc2CCN1C(=O)C1CCCN1C(=O)OCc1ccccc1 (stereo not drawn)
inactive: OVCAR-4 12.2 µM | SN12C 16.3 µM | SW-620 14.8 µM | U-251 15 µM | HCT-116 13.1 µM | ACHN 17.7 µM | SNB-19 24.3 µM | RPMI-8226 15 µM | EKVX 22.7 µM | A498 16.3 µM | NCI-H460 15.5 µM | 786-0 19.4 µM | SF-295 16.5 µM | OVCAR-5 18.1 µM | K562 16.2 µM | SF-539 18.7 µM | SNB-75 14.4 µM

O=[N+]([O-])C1(CO)COC(CCc2ccccc2)OC1 (stereo not drawn)
inactive: OVCAR-4 > 100 µM | SN12C > 100 µM | SW-620 > 100 µM | U-251 > 100 µM | CCRF-CEM > 100 µM | HCT-116 > 100 µM | ACHN > 100 µM | EKVX > 100 µM | NCI-H460 > 100 µM | 786-0 > 100 µM | SF-295 > 100 µM | OVCAR-5 > 100 µM | K562 > 100 µM | SF-539 > 100 µM | SNB-75 > 100 µM

CC(O)c1ccc(C(O)/C(=N\NC(=O)c2ccncc2)c2nc3ccc([N+](=O)[O-])cc3nc2O)cc1 (stereo not drawn)
inactive: OVCAR-4 > 100 µM | SN12C > 100 µM | SW-620 > 100 µM | U-251 > 100 µM | CCRF-CEM > 100 µM | HCT-116 > 100 µM | ACHN 42.4 µM | SNB-19 > 100 µM | RPMI-8226 > 100 µM | NCI-H460 > 100 µM | 786-0 > 100 µM | SF-295 > 100 µM | OVCAR-5 > 100 µM | K562 40.8 µM | SF-539 37 µM | SNB-75 > 100 µM

COc1ccc(C(=O)C(c2ccc(OC)cc2)C2(O)C(=O)Nc3c2ccc(Cl)c3C)cc1 (stereo not drawn)
inactive: OVCAR-4 > 100 µM | SN12C > 100 µM | SW-620 > 100 µM | U-251 > 100 µM | CCRF-CEM > 100 µM | HCT-116 > 100 µM | ACHN > 100 µM | SNB-19 > 100 µM | RPMI-8226 > 100 µM | EKVX > 100 µM | A498 > 100 µM | NCI-H460 > 100 µM | 786-0 > 100 µM | SF-295 > 100 µM | OVCAR-5 > 100 µM | K562 > 100 µM | SNB-75 37.3 µM

CC1(C2COC(=O)C2)SCCCS1 (stereo not drawn)
inactive: OVCAR-4 > 100 µM | SN12C > 100 µM | SW-620 > 100 µM | CCRF-CEM > 100 µM | HCT-116 > 100 µM | ACHN > 100 µM | SNB-19 > 100 µM | EKVX > 100 µM | NCI-H460 > 100 µM | 786-0 > 100 µM | SF-295 > 100 µM | SF-539 > 100 µM | SNB-75 > 100 µM

CC(C)(C)c1cc2c(O)c(c1)COCc1cc(C(C)(C)C)cc(c1O)COCc1cc(C(C)(C)C)cc(c1O)COC2
inactive: OVCAR-4 > 100 µM | SW-620 > 100 µM | U-251 > 100 µM | CCRF-CEM 59 µM | HCT-116 97.3 µM | ACHN 63.2 µM | SNB-19 6.04 µM | RPMI-8226 50.4 µM | EKVX > 100 µM | A498 46.6 µM | NCI-H460 > 100 µM | 786-0 19.1 µM | SF-295 > 100 µM | OVCAR-5 > 100 µM | K562 > 100 µM | SNB-75 9.35 µM

CCCCCCCCCCCC(=O)OCCOCCOCCOCCOCCOCc1ccc(OC)cc1
inactive: OVCAR-4 > 100 µM | SN12C > 100 µM | SW-620 > 100 µM | U-251 > 100 µM | CCRF-CEM > 100 µM | HCT-116 > 100 µM | ACHN > 100 µM | SNB-19 > 100 µM | RPMI-8226 > 100 µM | EKVX > 100 µM | A498 > 100 µM | NCI-H460 > 100 µM | 786-0 > 100 µM | SF-295 > 100 µM | OVCAR-5 > 100 µM | K562 > 100 µM | SNB-75 > 100 µM

CC(C)(C)C(=O)OCC(COC(=O)C(C)(C)C)[N+](=O)[O-]
inactive: OVCAR-4 > 100 µM | SN12C > 100 µM | SW-620 > 100 µM | U-251 > 100 µM | CCRF-CEM 41.9 µM | HCT-116 > 100 µM | ACHN > 100 µM | SNB-19 > 100 µM | RPMI-8226 45.3 µM | EKVX > 100 µM | NCI-H460 > 100 µM | 786-0 > 100 µM | SF-295 > 100 µM | OVCAR-5 > 100 µM | K562 47.6 µM | SF-539 > 100 µM | SNB-75 > 100 µM
